Reference: ChEMBL document CHEMBL1201862, “PubChem BioAssay data set” (2004)
The source made the active and inactive calls.

What was measured:
[1] = rise of 4N DNA cells, HeLa – IC50, dose response (AID 1117351); type: functional, cell-based
[2] = HIV-1 AD8 envelope cell-cell fusion blockers – cherry-pick, dose response (AID 652062); type: functional, cell-based;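 note: luciferase signal from cell-cell fusion driven by HIV-1 clade B AD8 Env; potency is for inhibitors of fusion seen as a drop in luminescence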
[3] = blockers of HIV-1 ZM109 envelope-driven cell-cell fusion – HeLa effector, CEM target cells, luciferase, cherry-pick, dose response (AID 652058); type: functional, cell-based;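 note: luciferase signal from HIV-1 Env mediated cell-cell fusion of effector and target cells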
[4] = off-target signal loss in HeLa-CEM21 co-culture – HeLa F-luc CTL cells, cherry-picked, counter-screen for HIV-1 Env fusion inhibitor project, dose response (AID 652040); type: functional, cell-based;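 note: potency for signal decrease marking cytotoxic or nonspecific inhibition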
[5] = blockers of HIV-1 envelope-mediated cell-cell fusion – cherry-pick, dose response (AID 652057); type: functional, cell-based
[6] = cells; type: functional, cell-based
[7] = biological target: T1, Nuclear receptor subfamily 0 group B member 1 (Homo sapiens, UniProt P51843); type: functional, cell-based;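 note: HEK293T cells transfected with SF-1 and DAX-1 plus StAR promoter luciferase reporter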
T1 sequence (P51843 whole entry): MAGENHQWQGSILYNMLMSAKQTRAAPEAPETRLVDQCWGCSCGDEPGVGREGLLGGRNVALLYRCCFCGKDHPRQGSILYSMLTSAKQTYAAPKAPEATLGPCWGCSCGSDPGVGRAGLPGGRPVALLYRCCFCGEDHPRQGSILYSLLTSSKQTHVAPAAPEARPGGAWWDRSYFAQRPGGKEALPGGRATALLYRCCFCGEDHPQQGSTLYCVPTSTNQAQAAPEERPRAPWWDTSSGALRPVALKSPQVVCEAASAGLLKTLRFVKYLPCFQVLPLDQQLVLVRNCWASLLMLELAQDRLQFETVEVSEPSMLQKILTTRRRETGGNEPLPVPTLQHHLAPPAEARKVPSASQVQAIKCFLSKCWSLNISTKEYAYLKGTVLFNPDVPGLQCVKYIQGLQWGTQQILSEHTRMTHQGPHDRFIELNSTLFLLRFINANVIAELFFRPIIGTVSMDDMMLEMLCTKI

[8] = biological target: Beta-galactosidase (Escherichia coli, UniProt Q8VNN2); test: Dose response counterscreen for EBI2 assay utilizing the enzyme, b-galactosidase.; type: functional
[9] = biological target: T2, Heat shock factor protein 1 (Mus musculus, UniProt P38532); test: decrease of HSF1-responsive luciferase luminescence – cell-based, NIH3T3, dose retest, confirmation (AID 2382); type: functional;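 note: NIH3T3 fibroblasts with HSF1-driven luciferase reporter stressed by proteasome inhibitor MG132; luminescence from HSF1-driven luciferase expression after 8 hours of MG132 stress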
T2 sequence (P38532 whole entry): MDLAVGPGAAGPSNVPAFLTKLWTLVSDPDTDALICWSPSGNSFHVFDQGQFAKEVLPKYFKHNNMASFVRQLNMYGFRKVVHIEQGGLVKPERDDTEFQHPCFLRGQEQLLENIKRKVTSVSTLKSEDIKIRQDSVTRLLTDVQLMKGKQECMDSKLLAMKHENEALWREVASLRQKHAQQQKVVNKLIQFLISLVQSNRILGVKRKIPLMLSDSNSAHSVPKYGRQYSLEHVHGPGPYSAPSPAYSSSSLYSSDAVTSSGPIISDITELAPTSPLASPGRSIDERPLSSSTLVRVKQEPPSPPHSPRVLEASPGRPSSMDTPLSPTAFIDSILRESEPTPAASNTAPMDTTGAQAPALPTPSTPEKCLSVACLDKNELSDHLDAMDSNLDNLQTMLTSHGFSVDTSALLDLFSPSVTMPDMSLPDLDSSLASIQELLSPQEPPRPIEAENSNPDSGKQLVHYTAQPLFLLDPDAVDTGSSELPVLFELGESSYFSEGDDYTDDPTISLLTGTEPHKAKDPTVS

[10] = test system: Streptococcus; test: GAS UMAA2166 growth inhibition – luminescence, BacTiterGlo, counter-screen for streptokinase expression inhibitor project, dose response (AID 1915); type: functional, organism-based;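 note: potency for reduction of bacterial viability or growth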
[11] = test system: Streptococcus sp. 'group A'; test: Streptococcus pyogenes SK(-)GAS viability under kanamycin – luminescence, BacTiterGlo, confirmation, counter-screen for streptokinase expression inhibitor project, dose response (AID 1900); type: functional, organism-based
[12] = HGIII-sPLA2 enzyme inhibition potency – biochemical, QFRET, IC50, dose response (AID 743457);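 note: green fluorescence rise as the enzyme cleaves BODIPY PC-A2 in liposomes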
[13] = cells; type: functional, cell-based; remark: listed apart in the source
[14] = biological target: T3, Trace amine-associated receptor 1 (Homo sapiens, UniProt Q96RJ0); test: Fluorescence-based cell-based high throughput dose response assay to identify agonists of the human trace amine associated receptor 1 (TAAR1).; type: functional
T3 sequence (Q96RJ0 whole entry): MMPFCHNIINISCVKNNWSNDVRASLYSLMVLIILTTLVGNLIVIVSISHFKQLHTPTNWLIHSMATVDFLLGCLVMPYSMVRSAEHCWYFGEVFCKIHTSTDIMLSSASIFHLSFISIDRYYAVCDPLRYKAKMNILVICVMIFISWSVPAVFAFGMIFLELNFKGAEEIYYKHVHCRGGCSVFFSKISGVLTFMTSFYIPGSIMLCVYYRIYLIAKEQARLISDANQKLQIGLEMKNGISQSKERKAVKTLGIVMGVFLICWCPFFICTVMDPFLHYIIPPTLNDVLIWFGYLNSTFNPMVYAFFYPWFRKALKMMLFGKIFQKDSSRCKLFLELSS

[15] = biological target: T3, Trace amine-associated receptor 1; test: Counterscreen for agonists of the human trace amine associated receptor 1 (hTAAR1): Fluorescence-based cell-based high throughput dose response assay to identify hTAAR1 agonist that also desensitize TAAR1 receptor response.; type: functional
[16] = cells; type: functional, cell-based; remark: listed apart in the source
[17] = biological target: T4, COUP transcription factor 2 (Homo sapiens, UniProt P24468); test: Luminescence-based cell-based high throughput dose response assay to identify inhibitors of COUP-TFII (NR2F2).; type: functional;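 note: HEK293 cells transiently cotransfected with COUP-TFII expression vector and reporter; luciferase reporter luminescence driven by COUP-TFII from the pX2-168 reporter plasmid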
T4 sequence (P24468 whole entry): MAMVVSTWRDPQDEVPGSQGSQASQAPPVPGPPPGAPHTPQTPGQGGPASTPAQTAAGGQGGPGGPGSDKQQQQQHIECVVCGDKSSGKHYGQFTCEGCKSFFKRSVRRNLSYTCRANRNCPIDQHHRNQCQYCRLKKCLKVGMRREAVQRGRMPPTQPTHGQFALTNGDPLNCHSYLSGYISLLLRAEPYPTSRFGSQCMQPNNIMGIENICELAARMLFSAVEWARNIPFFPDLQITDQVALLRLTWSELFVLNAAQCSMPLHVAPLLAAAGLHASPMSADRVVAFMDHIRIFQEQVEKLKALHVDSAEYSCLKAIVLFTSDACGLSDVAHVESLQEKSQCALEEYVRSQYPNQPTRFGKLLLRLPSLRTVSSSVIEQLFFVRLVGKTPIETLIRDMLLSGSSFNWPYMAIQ

[18] = HEK-293T viability loss after treatment – luminescence, T-cell screen hits, cytotoxicity control for TCR NF-kB inhibitor project, dose response (AID 489026); type: functional, cell-based;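 note: cells exposed to compound about 14 hours before the viability readout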
[19] = biological target: Protein-tyrosine kinase 2-beta (Homo sapiens, UniProt Q14289);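 note: potency of inhibitors of PYK2 kinase phosphorylation of poly-GT substrate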
[20] = biological target: Estrogen receptor beta (Homo sapiens, UniProt Q92731);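 note: recombinant ER-beta bound to coactivator SRC1 peptide in presence of estradiol agonist; inhibitors block coactivator peptide binding and lower the FRET signal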
[21] = biological target: Major prion protein (Homo sapiens, UniProt P04156); type: functional, cell-based
[22] = cells
[23] = alpha-synuclein stem-loop luciferase translation blockers – H4 neuroglioma cells, luminescence, confirmation (AID 1988); type: functional, cell-based
[24] = Luminescence Cell-Based Dose Response HTS to Identify Inhibitors of 5'UTR Stem-Loop Driven Prion Protein mRNA Translation in H4 Neuroglioblastoma Cells. [Related pubchem assays: 1827 (Project Summary), 1813 (Primary HTS)]; type: functional
[25] = luciferase reporter signal suppression in cells – H4 neuroglioma cells, luminescence, dose response (AID 1990); type: functional, cell-based

In the case of `CC[C@@]1(O)C(=O)OCc2c1cc1n(c2=O)Cc2c-1nc1ccccc1c2/C=N/OC(C)(C)C`, the IC50 [1] is reported as > 10 µM (inactive).

In the case of `CC[C@@]12C(=O)N(c3cccc(Br)c3)C(=O)N1[C@H](c1ccc(OC)cc1)[C@@H]1C(=O)N(C(C)(C)C)C(=O)[C@@H]12`, the AC50 [2] is reported as 627 nM (active), the AC50 [3] is reported as 581 nM (active) and the AC50 [4] is reported as 509 nM (active). For the same molecule, the AC50 [5] was 326 nM (active).

For `COc1ccc([C@@H]2[C@@H]3C(=O)N(C(C)(C)C)C(=O)[C@@H]3[C@]3(CC(C)C)C(=O)N(c4ccccc4)C(=O)N23)cc1`, the AC50 [2] was 1880 nM (active), the AC50 [3] was 1130 nM (active) and the AC50 [4] was 732 nM (active). For the same molecule, the AC50 [5] was 737 nM (active).

With `Cc1cc(C)n2nc(C(=O)Nc3ccc4c(c3)OCCO4)nc2n1` the IC50 [6] was > 67.5 µM (inactive) and the IC50 [7] was > 67.5 µM (inactive).

With `Cc1ccsc1C1Nc2ccc3ncccc3c2C2=C1C(=O)CC(C)(C)C2` (stereo not drawn) the IC50 [8] was > 80 µM (inactive).

In the case of `COc1ccc(C(=O)NC(=S)NNC(=O)c2ccco2)cc1`, the EC50 [9] is reported as > 195 µM (not active), the EC50 [10] is reported as 17.3 µM (active) and the EC50 [11] is reported as 6.65 µM (active). The IC50 [12] was > 122 µM (inactive).

With `O=C(CCN1CCCC1Cc1ccccc1)c1ccc2c(c1)OCCO2` (stereo not drawn) the EC50 [13] was > 29.9 µM (inactive), the EC50 [14] was 300 nM (active) and the IC50 [15] was > 9.97 µM (active). For the same molecule, the IC50 [16] was > 29.9 µM (inactive).

With `Cc1cc(-n2c(C)cc(C(=O)CSc3ncnc4ccccc34)c2C)no1` the IC50 [17] was 6.08 µM (active) and the IC50 [18] was > 80 µM (inactive).

For `COc1ccc(-c2cc3ccccc3oc2=O)cc1NC(=O)c1ccc(Br)o1`, the IC50 [19] was 1.57 µM (active).

For `CCOC(=O)c1cccc(NC(=O)c2cccs2)c1`, the IC50 [20] was > 50 µM (not active).

In the case of `COc1cc(C(=O)Nc2scc(-c3ccc(C)cc3)c2C(=O)O)cc(OC)c1OC`, the IC50 [21] is reported as 4.4 µM (active) and the IC50 [22] is reported as > 138 µM (inactive).

In the case of `CN(C)CCN(C(=O)c1ccc2c(c1)CCCC2)c1nc2cc3c(cc2s1)OCCO3`, the IC50 [6] is reported as > 67.5 µM (inactive) and the IC50 [7] is reported as > 67.5 µM (inactive).

In the case of `O=C1CC2(CCN(C(=O)COc3ccc(Cl)cc3)CC2)Oc2ccccc21`, the IC50 [8] is reported as > 80 µM (inactive).

In the case of `Cc1nn(C)c(C)c1CN(C)C(=O)c1cnn2c1NC(c1ccccc1)CC2C(F)(F)F` (stereo not drawn), the IC50 [20] is reported as > 50 µM (not active), the EC50 [23] is reported as 20 µM (active) and the EC50 [24] is reported as 17.9 µM (active). The EC50 [25] was > 120 µM (not active).
